Laboratory results published in US20090143279A1 (priority 2007, published 2009).
Like-named read-outs stand apart in the source and are kept apart here.

What was measured:
reactive oxygen species = type: cell-based, mouse
[1] = system: mitochondrial membrane potential; type: cell-based, mouse
mtOXPHOS transcripts = type: cell-based, mouse
OXPHOS gene expression = type: cell-based, mouse
[2] = system: cellular dehydrogenase activity
cytochrome c = type: cell-based, mouse
nuOXPHOS transcripts = type: cell-based, mouse
[3] = composite Z-score vs DMSO, Conc 20 μM
[4] = composite Z-score vs DMSO wells, Conc 20 μM
[5] = Conc 20 μM, normalized score vs mock-treated (DMSO) wells
[6] = Table 4, C2C12 myotubes, 48 h, composite Z-score
[7] = Table 4, C2C12 myotubes, 48 h, JC-1, composite Z-score
[8] = 18.76 μM, composite Z-score vs DMSO
[9] = 20 μM, composite Z-score vs DMSO
[10] = composite Z-score vs mock-treated (DMSO) wells, Conc 20 μM
[11] = normalized composite Z-score vs mock-treated (DMSO) wells, Conc 20 μM

cytochrome c, sequence (P62897 whole entry): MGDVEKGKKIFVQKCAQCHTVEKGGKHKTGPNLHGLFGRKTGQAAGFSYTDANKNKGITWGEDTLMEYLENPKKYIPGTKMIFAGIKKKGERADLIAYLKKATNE

What does the source list for CC(C)(OC(=O)c1ccccc1)[C@@H]1Cc2cc3ccc(=O)oc3cc2O1 [felamidin]?
ROS (reactive oxygen species; [3]): 0.710; Viability (C2C12 myotubes; [3]): 0.224; ΔΨm [1, 3]: 0.600; mitoOX (mtOXPHOS transcripts; [3]): 1.050; GE-HTS (OXPHOS gene expression; [3]): 0.966; MTT [2, 3]: −0.475; cyt c (cytochrome c; [3]): 0.921; nucOX (nuOXPHOS transcripts; [3]): 0.835

Which “ROS (composite Z-score vs DMSO)” value (reactive oxygen species) does the source give for [O-][n+]1ccccc1[S-].[O-][n+]1ccccc1[S-].[Zn+2] [pyrithione zinc] here?
Its value is −2.405.

What about the “Viability (composite Z-score vs DMSO)” value (C2C12 myotubes) of the same compound?
Its value is −5.339.

What about the “ΔΨm (composite Z-score vs DMSO)” value [1] of the same compound?
The value was −3.529.

And the “mitoOX (composite Z-score vs DMSO)” value (mtOXPHOS transcripts)?
The value was −0.770.

What about the “GE-HTS (composite Z-score vs DMSO)” value (OXPHOS gene expression) of the same compound?
The value was −3.250.

And the “MTT (composite Z-score vs DMSO)” value [2]?
The value was −6.284.

And the “cyt c (composite Z-score vs DMSO)” value (cytochrome c)?
The value was −4.773.

And the “nucOX (composite Z-score vs DMSO)” value (nuOXPHOS transcripts)?
Its value is −4.140.

For NCCNC(=O)c1ccc(Cl)cc1 [N-(2-aminoethyl)-4-chlorobenzamide], which ROS (reactive oxygen species; [4]) is on record?
The ROS was 1.036.

What about the Viability (C2C12 myotubes; [4]) of the same compound?
Its Viability is −1.090.

And the ΔΨm [1, 4]?
The ΔΨm was −1.051.

And the mitoOX (mtOXPHOS transcripts; [4])?
The mitoOX was −0.205.

What about the GE-HTS (OXPHOS gene expression; [4]) of the same compound?
Its GE-HTS is 0.065.

And the MTT [2, 4]?
Its MTT is −0.669.

What about the cyt c (cytochrome c; [4]) of the same compound?
The cyt c was −0.423.

And the nucOX (nuOXPHOS transcripts; [4])?
The nucOX was 0.175.

What does the source list for CO/N=C(\C(=O)N[C@@H]1C(=O)N2C(C(=O)O)=C(CSc3nc(=O)c(=O)[nH]n3C)CS[C@H]12)c1csc(N)n1 [ceftriaxone]?
ROS (reactive oxygen species): −0.002; Viability (C2C12 myotubes): −0.792; ΔΨm [1]: −0.461; mitoOX (mtOXPHOS transcripts): −0.382; GE-HTS (OXPHOS gene expression): −0.433; MTT [2]: −1.040; cyt c (cytochrome c): 0.481; nucOX (nuOXPHOS transcripts): −0.439

O=C1c2ccc(O)cc2OC(c2cc(O)c(O)c(O)c2)C1O (stereo in doubt) [dihydrorobinetin, reference compound] was tested. Which “ROS (composite Z-score)” value (reactive oxygen species; [5]) did it give?
The value was −0.393.

And the ROS (reactive oxygen species; [6])?
Its ROS is −0.393.

And the “Viability (composite Z-score)” value (C2C12 myotubes; [5])?
The value was −1.070.

And the Viability (C2C12 myotubes; [6])?
The Viability was −1.070.

What about the “ΔΨm (composite Z-score)” value [1, 5] of the same compound?
Its value is −3.396.

And the ΔΨm [1, 7]?
Its ΔΨm is −3.396.

What about the “mitoOX (composite Z-score)” value (mtOXPHOS transcripts; [5]) of the same compound?
The value was −1.124.

And the “GE-HTS (composite Z-score)” value (OXPHOS gene expression; [5])?
Its value is −1.192.

What about the “MTT (composite Z-score)” value [2, 5] of the same compound?
Its value is −1.259.

And the MTT [2, 6]?
The MTT was −1.259.

And the “cyt c (composite Z-score)” value (cytochrome c; [5])?
Its value is 0.082.

What about the “nucOX (composite Z-score)” value (nuOXPHOS transcripts; [5]) of the same compound?
Its value is −1.089.

What does the source list for Nc1ccc(/N=N/c2ccccc2)c(N)n1 [phenazopyridine]?
ROS (reactive oxygen species; [8]): 0.587; ROS (reactive oxygen species; [9]): 1.911; Viability (C2C12 myotubes; [8]): −0.413; Viability (C2C12 myotubes; [9]): 0.627; ΔΨm [1, 8]: 0.126; ΔΨm [1, 9]: 1.263; mitoOX (mtOXPHOS transcripts; [8]): −0.930; mitoOX (mtOXPHOS transcripts; [9]): 0.544; GE-HTS (OXPHOS gene expression; [8]): −0.561; GE-HTS (OXPHOS gene expression; [9]): 0.362; MTT [2, 8]: −2.094; MTT [2, 9]: −0.692; cyt c (cytochrome c; [8]): 0.678; cyt c (cytochrome c; [9]): 0.335; nucOX (nuOXPHOS transcripts; [8]): −0.323; nucOX (nuOXPHOS transcripts; [9]): 0.207

With CC[C@@H](C)C(=O)O[C@H]1[C@H](O)[C@H]2[C@@H](CN3C[C@@H](C)CC[C@H]3[C@@]2(C)O)[C@@H]2C[C@]34O[C@]5(O)[C@@H](OC(=O)[C@](C)(O)[C@@H](C)O)CC[C@@]3(C)[C@@H]5[C@@H](OC(C)=O)[C@@H](OC(C)=O)[C@H]4[C@@]21O (stereo in doubt) [protoveratrine B] as the compound, how does the ROS (reactive oxygen species; [3]) read?
The ROS was 0.244.

What about the Viability (C2C12 myotubes; [3]) of the same compound?
Its Viability is 0.708.

And the ΔΨm [1, 3]?
Its ΔΨm is 0.942.

And the mitoOX (mtOXPHOS transcripts; [3])?
Its mitoOX is −0.096.

And the GE-HTS (OXPHOS gene expression; [3])?
Its GE-HTS is 0.018.

And the MTT [2, 3]?
Its MTT is 0.904.

And the cyt c (cytochrome c; [3])?
The cyt c was −1.085.

What about the nucOX (nuOXPHOS transcripts; [3]) of the same compound?
The nucOX was 0.058.

With O=C(C=C(O)c1ccccc1)c1ccccc1O [2′,beta-dihydroxychalcone] as the compound, how does the ROS (reactive oxygen species; [3]) read?
The ROS was 0.194.

And the Viability (C2C12 myotubes; [3])?
Its Viability is −0.801.

And the ΔΨm [1, 3]?
Its ΔΨm is −0.044.

What about the mitoOX (mtOXPHOS transcripts; [3]) of the same compound?
The mitoOX was 0.600.

And the GE-HTS (OXPHOS gene expression; [3])?
Its GE-HTS is 0.097.

And the MTT [2, 3]?
The MTT was −1.791.

And the cyt c (cytochrome c; [3])?
Its cyt c is −0.260.

And the nucOX (nuOXPHOS transcripts; [3])?
The nucOX was −0.188.

How did the ROS (reactive oxygen species; [10]) turn out when COc1cc(-c2coc3cc(OC)c(OC)c(OC)c3c2=O)cc(OC)c1OC [irigenin trimethyl ether] was run?
The ROS was −0.074.

What about the Viability (C2C12 myotubes; [10]) of the same compound?
Its Viability is −0.060.

What about the ΔΨm [1, 10] of the same compound?
Its ΔΨm is −0.174.

What about the mitoOX (mtOXPHOS transcripts; [10]) of the same compound?
Its mitoOX is −0.699.

And the GE-HTS (OXPHOS gene expression; [10])?
Its GE-HTS is −0.792.

And the MTT [2, 10]?
Its MTT is −0.808.

What about the cyt c (cytochrome c; [10]) of the same compound?
The cyt c was 0.129.

What about the nucOX (nuOXPHOS transcripts; [10]) of the same compound?
Its nucOX is −0.790.

Which ROS (reactive oxygen species; [6]) does the source give for “12a-hydroxy-5-deoxydehydromunduserone [reference compound]” here?
Its ROS is 0.823.

And the ROS (reactive oxygen species; [11])?
The ROS was 0.823.

And the Viability (C2C12 myotubes; [6])?
The Viability was −0.940.

What about the Viability (C2C12 myotubes; [11]) of the same compound?
The Viability was −0.940.

What about the ΔΨm [1, 7] of the same compound?
The ΔΨm was −0.179.

And the ΔΨm [1, 11]?
Its ΔΨm is −0.179.

What about the mitoOX (mtOXPHOS transcripts; [11]) of the same compound?
The mitoOX was 0.239.

And the GE-HTS (OXPHOS gene expression; [11])?
The GE-HTS was 0.211.

And the MTT [2, 6]?
The MTT was −1.976.

And the MTT [2, 11]?
The MTT was −1.976.

And the cyt c (cytochrome c; [11])?
Its cyt c is −0.179.

What about the nucOX (nuOXPHOS transcripts; [11]) of the same compound?
Its nucOX is 0.193.

What does the source list for CCCCCC(=O)Cc1cc(O)cc(O)c1C(=O)Oc1cc(CC(=O)CCCCC)c(C(=O)O)c(OC)c1 [arthonioic acid]?
ROS (reactive oxygen species; [3]): 1.167; Viability (C2C12 myotubes; [3]): −0.413; ΔΨm [1, 3]: −0.493; mitoOX (mtOXPHOS transcripts; [3]): −0.657; GE-HTS (OXPHOS gene expression; [3]): −0.668; MTT [2, 3]: −2.597; cyt c (cytochrome c; [3]): −0.019; nucOX (nuOXPHOS transcripts; [3]): −0.590

Which results are given for CC(C)=CC1C(CO)C1(C)C (stereo not shown) [chrysanthemyl alcohol]?
ROS (reactive oxygen species; [11]): 0.345; Viability (C2C12 myotubes; [11]): 0.604; ΔΨm [1, 11]: −0.734; mitoOX (mtOXPHOS transcripts; [11]): 0.331; GE-HTS (OXPHOS gene expression; [11]): 0.456; MTT [2, 11]: −0.004; cyt c (cytochrome c; [11]): 0.264; nucOX (nuOXPHOS transcripts; [11]): 0.495
